Assay results published in patent publication US5430055A, “Inhibitor of squalene synthase” (Pfizer Inc., priority 1994, dated 1995).

Legend:
[1] = biological target: T1, ras farnesyltransferase (Rattus norvegicus, UniProt Q02293+Q04631); assay: ras Farnesyltransferase inhibition assay; format: biochemical; settings: rat brain cytosol, H-ras 4 μM, 30 minutes at 37° C., pH 7.5
T1 construct: diluted rat brain cytosol; from tissue; host or cells: rat brain cytosol
Protocol: The ras farnesyltransferase inhibition assay was conducted in a final volume of 25 μL. The reaction is initiated by addition of 10 μpL of the diluted rat brain cytosol to a mixture of 15 μL of the ras farnesyltransferase substrate/cofactor solution and 0.3 μL of test compound solution as set out in Table 7.
The rat brain cytosols were diluted to a protein concentration of 3.0 mg/mL. Test compound solutions were prepared in dimethyl sulfoxide at concentrations of 25 mM (final assay concentration 300 μM). Control incubations received 0.3 μL of dimethyl sulfoxide and enzyme blanks received 10 μL rat brain homogenization buffer (50 mM tris HCl (pH=7.5), 5 mM dithiothreitol, 0.2M KCl, 20 μM ZnCl2). After a 30 minute incubation at 37° C., the reaction was terminated by addition of 200 μL of 10% (v/v) HCl in EtOH. After an additional 15 minute incubation at 37° C., 300 μl absolute EtOH were added and the entire sample was applied to a filtration well of a Packard Unifilter-GF/B 96-well plate under vacuum. After complete sample addition, the filter well was washed four times with 500 μl each of absolute ethanol and allowed to dry. The bottom of the Unifilter-GF/B plate was then sealed, 50 μl Microscint-20 liquid scintillation fluid were added to each well and the plate was heat-sealed and then counted in a Packard Top-Count liquid scintillation counter.
ras Farnesyltransferase Assay […]

[2] = tested on: Cryptococcus bhutanensis, Resistant Strain; assay: Antifungal bioassay, zone of inhibition, resistant strain; format: cell-based; settings: yeast nitrogen based medium, 28° C., 2 to 3 days
Protocol: (§1) The antifungal activity of the compound I was determined with a bioassay such as Cryptococcus bhutanensis FD 23971. A ten-day-old slant of C. bhutanensis was washed with 10 ml of sterile water, and 300 μl of the suspension was mixed with an assay medium consisting of 0.67% of yeast nitrogen based medium (DIFCO) and 0.5% of glucose. 150 ml of the warm medium was poured onto a sterile, polystyrene bioassay plate (245×245×20 mm) and was left to solidify. The solid medium was bored into well-separated wells with a size #2 cork bore, and 25 μl of whole broth or extracted broth was spotted into the wells. The plates were incubated at 28° C. for 2 to 3 days and the zone of inhibition was measured.
(§2) The zones of inhibition against Cryptococcus bhutanensis on a yeast nitrogen based medium are as follows: […]

[3] = biological target: T2, squalene synthase (Homo sapiens, UniProt P37268); assay: Squalene Synthase Inhibition Assay; format: biochemical; settings: microsomal protein, 30 minutes at 37° C., pH 7.4
T2 sequence (P37268 1-417): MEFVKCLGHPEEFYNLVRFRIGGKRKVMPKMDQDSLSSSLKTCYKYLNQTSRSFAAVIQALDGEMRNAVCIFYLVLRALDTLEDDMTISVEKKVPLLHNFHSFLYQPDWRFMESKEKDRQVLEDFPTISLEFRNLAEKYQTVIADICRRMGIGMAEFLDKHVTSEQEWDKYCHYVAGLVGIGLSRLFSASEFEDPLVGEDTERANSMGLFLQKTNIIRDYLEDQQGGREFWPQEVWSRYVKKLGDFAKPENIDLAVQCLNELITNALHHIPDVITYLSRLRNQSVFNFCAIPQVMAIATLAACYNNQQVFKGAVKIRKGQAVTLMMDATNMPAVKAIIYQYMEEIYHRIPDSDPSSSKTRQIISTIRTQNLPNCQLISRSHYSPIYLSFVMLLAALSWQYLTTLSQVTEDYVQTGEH
Protocol: The squalene synthase inhibition assay was conducted in a final volume of 75 μl. The reaction is initiated by addition of 25 μl of the diluted and deoxygenated microsomal suspension to a mixture of 47 μl of the deoxygenated SQS substrate/cofactor solution and 3 μl of the deoxygenated test compound solution as set out in Table 6.
Glucose-6-phosphate 0.95 U
The microsomal suspensions were diluted to a microsomal protein concentration of 1 mg/ml and deoxygenated by repetitive cycles of evacuation and airation with nitrogen. […] Control incubations received 3 μl of deoxygenated dimethyl sulfoxide and enzyme blanks received 25 μl of deoxygenated PMED buffer (50 mM K2 PO4 (pH=7.4), 5 mM MgCl2, 1 mM EDTA, 5 mM dithiothreitol). Assay tubes were immediately flushed with nitrogen and capped, and the solution was vortexed gently. Following 30 minutes of incubation at 37° C., reactions were terminated by addition of 40 μl of 10M sodium hydroxide. […] The region of the chromatogram from 1 cm below the squalene band (visualized with iodine vapors) to the top of the chromatogram was removed and counted in a liquid scintillation counter using Aquasol-2 liquid scintillation fluid. […]
SQS activity (overall reaction) is calculated as pmoles of [3H] squalene formed from [1-3H] […]

[4] = tested on: Cryptococcus bhutanensis, Sensitive Strain (against zaragozic Acid A); assay: Antifungal bioassay, zone of inhibition, sensitive strain (against zaragozic acid A); format: cell-based; settings: yeast nitrogen based medium, 28° C., 2 to 3 days
Protocol: as §1, §2

[5] = tested on: ras protein farnesylation; settings: background statement; cited from earlier work

SMILES | IC50 [1] | zone of inhibition [2] | IC50 [3] | zone of inhibition [4] | inhibition of farnesylation of ras protein [5]
C/C=C/CCCCC[C@@H]1C=C2[C@]3(CC(=O)O)CC4=C(C(=O)OC4=O)[C@H]([C@H]1C[C@@H](O)C(=O)CC/C=C/C)[C@@]2(O)OC3=O [Fraction 5 compound] | 6 µM | 22 mm | 48 µM | 15 mm | –
C/C=C/CCCCC[C@@H]1C=C2[C@]3(CC(=O)O)CC4=C(C(=O)OC4=O)[C@@H]4[C@H]1C[C@H](C(=O)CC/C=C/C)O[C@]24OC3=O [CP-263,114] | – | 45 mm | – | 42 mm | –
C=C(CC[C@]12O[C@H](C(=O)O)[C@@](O)(C(=O)O)[C@](C(=O)O)(O1)[C@H](OC(=O)/C=C/[C@@H](C)C[C@@H](C)CC)[C@H]2O)[C@@H](OC(C)=O)[C@H](C)Cc1ccccc1 [Zaragozic acid A, reference compound] | 3 µM | – | – | – | inhibit farnesylation of ras protein
